Patent publication US11465995B2, “Crystal and salt forms of tricyclic compound and preparation process thereof” (SHIJIAZHUANG SAGACITY NEW DRUG DEVELOPMENT COMPANY, LTD., priority 2018, dated 2022)

Assays:
[1] = Stability test of Crystal Form A solid (accelerated, 40° C./75% humidity, open); assay type: physicochemical
Method: Crystal Form A was placed in an opening container with constant temperature and humidity for accelerated test, under the conditions of 40° C./75% humidity (open). Samples were taken at 1st, 2nd, 3rd month for testing, and the test results were compared with initial results of day 0.

[2] = test system: TNBS-induced acute infectious bowel disease (IBD) model; experiment: Pharmacodynamic test on TNBS-induced acute infectious bowel disease (IBD) model in female SD rats; assay type: in vivo; set-up: Ulcer score / Inflammation score / Total injury score: scale not given here
Method: Female SD rats were divided into 7 groups, that is, model group, prednisolone-10 mg/kg group, Ozanimod-0.3 mg/kg group, Ozanimod-1.0 mg/kg group, Compound 1-0.1 mg/kg group, Compound 1-0.3 mg/kg group, Compound 1-0.6 mg/kg group. All animals were deeply anesthetized with pentobarbital sodium, and TNBS-50% alcohol solution was inserted into the intestinal cavity from the anus for modeling. The animal's anus was squeezed, and the animal was allowed to stand upside down for 5 min. The animals were returned to the cage after assured to be leak free.
The test compounds were administered orally 1 h after modeling, once a day for 7 days. The model group was given an equal volume of drug vehicle. The animals were weighed daily before administration of the test compound and were monitored for daily fecal traits and given clinical observation scores. The day after the last administration, all animals were euthanized. The colons were collected (anal to nodular part), the length and weight of the colons were measured, and the gross anatomical scores of the lesion sizes was taken. The gross anatomical images of the colon lesions were recorded, and the tissues were fixed in 10% neutral formalin solution and were subjected to histopathological analysis.

[3] = 40° C./75% humidity (Open), 1 month
[4] = 40° C./75% humidity (Open), 2 months
[5] = 40° C./75% humidity (Open), 3 months
[6] = 10 mg/kg oral once a day for 7 days, mean ± sem
[7] = colon pathological test, 10 mg/kg, mean ± sem

Row | Structure (SMILES) | Appearance [1, 3] | Content (%) [1, 3] [%] | Total Impurity (%) [1, 3] [%] | Appearance [1, 4] | Content (%) [1, 4] [%] | Total Impurity (%) [1, 4] [%] | Appearance [1, 5] | Content (%) [1, 5] [%] | Total Impurity (%) [1, 5] [%] | amount of total impurity (change over the test) ([1]; 40° C./75% humidity (open), up to 3 months vs day 0) | Appearance ([1]; Initial, 0 month) | Content (%) ([1]; Initial, 0 month) | Total Impurity (%) ([1]; Initial, 0 month) | Injury area (cm^2) [2, 6] [cm^2] | Ulcer area (cm^2) [2, 6] [cm^2] | colon ulcers (dissection at the end of the experiment) ([2]; 10 mg/kg, compared to the model group) | Inflammation score [2, 7] | Total injury score [2, 7] | Ulcer score [2, 7]
1 | CC(C)Oc1ccc(-c2nc(-c3cccc4c3C[C@@H]3CC(=O)N(CCO)[C@H]43)no2)cc1C#N [Crystal Form A] | White powder | 101.4 | 0.31 | White powder | 98.8 | 0.34 | White powder | 101.8 | 0.32 | did not increase | White powder | 101.6 | 0.33 |  |  |  |  |  | 
2 | C[C@]12C=CC(=O)C=C1CC[C@@H]1[C@@H]2[C@@H](O)C[C@@]2(C)[C@H]1CC[C@]2(O)C(=O)CO [Prednisolone] |  |  |  |  |  |  |  |  |  |  |  |  |  | 4.45 ± 0.82 | 1.58 ± 0.53 | not reduced | 3.00 ± 0.33 | 5.00 ± 0.63 | 2.00 ± 0.38
